ChEMBL document CHEMBL1148230, “Synthesis, characterization and evaluation of pro-drugs of VLA-4 antagonists” (Bioorg Med Chem Lett, 2004)
Converted amounts (≈) assume the structure as drawn.

Legend:
[1] = Solubility in SGF buffer system; assay type: physicochemical
HUVEC = assay: Inhibitory activity against VLA-4 mediated adhesion to human vein endothelial cells; assay type: functional, cell-based
[2] = Permeability in Caco-2 assay at 10E-6; assay type: ADME; settings: human, read-out: Activity
[3] = Solubility in SIBLM buffer system; assay type: physicochemical
[4] = Solubility in SIF buffer system; assay type: physicochemical
[5] = Log Doctanol value by HPLC peak area analysis of aqueous and octanol phases at pH 4.5-6.5; assay type: physicochemical
[6] = Log Doctanol value by HPLC peak area analysis of aqueous and octanol phases at pH 6.5; assay type: physicochemical; settings: octanol/aqueous phase, read-out: LogD6.5
[7] = Stability in rat plasma was determined; assay type: ADME
[8] = Solubility in SIF buffer system; ND= not detectable; assay type: physicochemical; settings: simulated gi fluid
[9] = Log Doctanol value by HPLC peak area analysis of aqueous and octanol phases at pH 4.5; assay type: physicochemical; settings: octanol/aqueous phase
[10] = Solubility in SGF buffer system; ND=not detectable; assay type: physicochemical; settings: simulated gi fluid
[11] = octanol/aqueous phase, read-out: logD

CN(C)C(=O)Oc1ccc(C[C@H](NC(=O)[C@H]2N(S(=O)(=O)c3ccn(C)n3)CSC2(C)C)C(=O)O)cc1
solubility [1]: 3300 µg/mL (≈ 6120 µM)
IC50 (HUVEC): 6 nM
Papp [2]: > 0.07 ×10⁻⁶ cm/s
solubility [3]: 20000 µg/mL (≈ 37100 µM)
solubility [4]: > 20000 µg/mL

COCCOCCOC(=O)[C@H](Cc1ccc(OC(=O)N(C)C)cc1)NC(=O)[C@H]1N(S(=O)(=O)c2ccn(C)n2)CSC1(C)C
solubility [1]: 2830 µg/mL (≈ 4410 µM)
Papp [2]: 2.03 ×10⁻⁶ cm/s
logD [5, 11]: 1.41
solubility [3]: 4650 µg/mL (≈ 7250 µM)
logD [6]: 1.42
solubility [4]: 2400 µg/mL (≈ 3740 µM)
half-life [7]: 13.1 min

CN(C)C(=O)Oc1ccc(C[C@H](NC(=O)[C@H]2N(S(=O)(=O)c3ccn(C)n3)CSC2(C)C)C(=O)OCOC(=O)C(C)(C)C)cc1
solubility [1]: 13 µg/mL (≈ 19.9 µM)
solubility [8]: Not detectable
Papp [2]: 2.49 ×10⁻⁶ cm/s
solubility [3]: 119 µg/mL (≈ 182 µM)
logD [9]: 3.1
logD [6]: 3.17
half-life [7]: 2.82 min

CCOC(=O)[C@H](Cc1ccc(OC(=O)N(C)C)cc1)NC(=O)[C@H]1N(S(=O)(=O)c2ccn(C)n2)CSC1(C)C
solubility [1]: 629 µg/mL (≈ 1110 µM)
Papp [2]: 4.24 ×10⁻⁶ cm/s
solubility [3]: 1180 µg/mL (≈ 2080 µM)
logD [9]: 2.27
logD [6]: 2
solubility [4]: 341 µg/mL (≈ 601 µM)
half-life [7]: 8.08 min

CC(C)OC(=O)[C@H](Cc1ccc(OC(=O)N(C)C)cc1)NC(=O)[C@H]1N(S(=O)(=O)c2ccn(C)n2)CSC1(C)C
solubility [1]: 94.9 µg/mL (≈ 163 µM)
Papp [2]: 6.83 ×10⁻⁶ cm/s
solubility [3]: 158 µg/mL (≈ 272 µM)
logD [9]: 2.45
logD [6]: 2.47
solubility [4]: 45.5 µg/mL (≈ 78.2 µM)
half-life [7]: 10.9 min

CN(C)C(=O)Oc1ccc(C[C@H](NC(=O)[C@H]2N(S(=O)(=O)c3ccn(C)n3)CSC2(C)C)C(=O)OCC(C)(C)C)cc1
solubility [1]: 0.334 µg/mL (≈ 0.548 µM)
solubility [8]: Not detectable
Papp [2]: 4.52 ×10⁻⁶ cm/s
logD [5, 11]: 3.43
logD ([5]; octanol/water): 3.42
solubility [3]: 6.97 µg/mL (≈ 11.4 µM)
half-life [7]: 53.4 min

CN(C)C(=O)Oc1ccc(C[C@H](NC(=O)[C@H]2N(S(=O)(=O)c3ccn(C)n3)CSC2(C)C)C(=O)OCCOc2ccccc2)cc1
Papp [2]: 7.58 ×10⁻⁶ cm/s
solubility [3]: 24 µg/mL (≈ 36.4 µM)
logD [9]: 3.21
logD [6]: 3.34
solubility [4]: 0.506 µg/mL (≈ 0.767 µM)
solubility [10]: Not detectable
half-life [7]: 1.6 min
